Source: patent US11673916B2, “Neuroprotective peptides and methods of their use” (University of Pittsburgh—Of the Commonwealth System of …, priority 2020, dated 2023)

System: cortical neurons
Test: Cell toxicity assay (LDH release) after excitotoxic TBOA treatment
Format: cell-based, rat
Conditions: 3 μM peptide, TBOA 60 μM, LDH 24 h after initial TBOA treatment, mean±SEM (FIG. 4D)
Protocol: Cortical neurons were pre-treated with vehicle, TAT-DP-2 (3 μM), or TAT-Sc-2 (3 μM) for 2 hours in HEPES-buffered minimal essential media with 0.01% bovine serum albumin (MHB). Next, cells with the same peptide concentrations along with either vehicle or 60 μM DL-threo-β-benzyloxyaspartic acid (TBOA) for 6 hours. Each well was washed two times with either 0.5 mL of vehicle or 60 μM TBOA and neurons were incubated overnight. Twenty-four hours following initial TBOA treatment, media was collected for lactate dehydrogenase assays (Sigma Aldrich, St. Louis, Mo.). Relative toxicity was quantified by calculating the ratio of LDH concentration in TBOA-treated over non-TBOA-treated wells. […]
With evidence that TAT-DP-2-mediated declustering prevents enhancement of pro-apoptotic Kv2.1 potassium currents following injury, the neuroprotective actions of TAT-DP-2 in cortical neurons in vitro were next tested. […] Neurotoxicity was assessed by the release of lactate dehydrogenase (LDH) into the culture medium, as described previously (Aras, et al., Curr Protoc Neurosci. 44: 7.18.1-7.18.15, 2008). […] Based on these findings, the potential neuroprotective actions of TAT-DP-2 were evaluated in an in vivo model of ischemia-reperfusion injury, where a substantial contribution of Kv2.1-enabled neuronal cell death has been previously observed (Yeh et al., J Neurosci. 37: 5648-5658, 2017).

Row | Sequence | mean relative toxicity ([LDH]TBOA/[LDH]Veh)
1 | YGRKKRRQRRRDFSSIST [TAT-Sc-2, TAT-linked scramble control peptide] | 1.57±0.15
2 | YGRKKRRQRRRSIDSFTS [TAT-DP-2, TAT-linked declustering peptide 2] | 1.01±0.15
